According to US7795385B2, “Use of bombesin/gastrin-releasing peptide antagonists for the treatment of inflammatory conditions, acute lung injury and bipolar disorder” (Bexar Global, Inc., priority 2004, dated 2010):

Tests used:
[1] = tested on: amphetamine (AMPH)-induced hyperactivity in rats; experiment: Amphetamine-induced hyperactivity test (open field, model of mania); format: in vivo, male Wistar rats; conditions: RC-3095 0.1, 1.0 or 10.0 mg/kg i.p.
Protocol: Animals. A total of 120 male Wistar rats (age, 2.5-3 months; weight, 220-340 g) from an inhouse breeding colony were used. They were housed in plastic cages, 5 to a cage, with water and food freely available, under a 12-h light/dark cycle (lights on at 7:00 h). All experimental procedures were performed in accordance with the NIH Guide for the Care and Use of Laboratory Animals and the Brazilian Society for Neuroscience and Behavior (SBNeC) recommendations for animal care.
Drugs and pharmacological procedures. d-amphetamine (AMPH, 2.0 mg/kg) and RC-3095 (a gift from Dr. J. Engel, Zentaris GmbH, Germany) were dissolved in saline (SAL, 0.9% NaCl). All solutions were prepared immediately prior to administration. Animals were given a 10 ml/kg intraperitoneal (i.p.) injection of SAL or RC-3095 (0.1, 1.0 or 10.0 mg/kg) followed by an i.p. injection of SAL or AMPH […] 30 min later. Thus, the resulting experimental groups were: SAL/SAL; SAL/AMPH, RC-3095 0.1 mg/kg/AMPH, RC-3095 1.0 mg/kg/AMPH, RC-3095 10.0 mg/kg/AMPH, RC 3095 0.1 mg/kg/SAL; RC-3095 1.0 mg/kg/SAL; and RC-3095 10.0 mg/kg/SAL.
Hyperactivity test. […] Crossings of the black lines and rearings performed were counted. […]
Statistical analysis. All data are presented as mean±S.E.M. Differences among experimental groups were determined by ANOVA. […]

[2] = tested on: patient with rheumatoid arthritis; experiment: Administration to a patient with rheumatoid arthritis; format: in vivo, human; conditions: 6 mg RC-3095 twice daily s.c.
Protocol: The composition consists of a white lyophilised cake in a 4 ml injection vial. One injection vial will be reconstituted with 2 ml water for injection.
A patient with rheumatoid arthritis, started on March 22 with 6 mg of RC-3095, twice daily. Application subcutaneously.
At baseline visit the patient presented with joint pain grade 3, joint inflammation grade 2 and depression grade 2.
Before start with RC-3095 they were already taken methotrexate, subcutaneously, once a week, and corticosteroids.
They were followed every two weeks by physical examination and laboratorial exams.

For `CC(C)C[C@@H](CN[C@@H](CC(C)C)C(N)=O)NC(=O)[C@H](Cc1c[nH]cn1)NC(=O)CNC(=O)[C@@H](NC(=O)[C@H](C)NC(=O)[C@H](Cc1c[nH]c2ccccc12)NC(=O)[C@H](CCC(N)=O)NC(=O)[C@H]1Cc2c([nH]c3ccccc23)CN1)C(C)C` [RC-3095, H-D-Tpi-Gln-Trp-Ala-Val-Gly-His-Leu-psi-Leu-NH2], the “other behavioral measures (sedation)” value [1] was “did not alter” and the adverse events [2] was “only local (nodes and pruritus)”.
